# Test results reported in PubChem BioAssay AID2060342 (Molecular Pharmacology Branch, DTP, NCI, 2025).
# Test system: 171881-019-R-J1-PDC multicell spheroid viability
# Test: Anticancer human tumor 171881-019-R-J1-PDC patient-derived invasive breast carcinoma cell line growth inhibition [IpAb]
# Conditions: for IC50: curve of first compound; for viability, T/C: stronger effect = lower value
# Excerpt: Combinatorial screen of targeted agents with ipatasertib and abemaciclib in multi-cell type tumor spheroids
# A high-throughput screen of multi-cell type tumor spheroids was designed to identify active combinations of targeted small molecules and ipatasertib or abemaciclib. Complex spheroids include a stromal component modeled by human endothelial cells (HUVEC) and fibroblasts modeled by human mesenchymal stem cells (MSCs). The concentration ranges selected for each drug and investigational agent were based upon clinically achievable concentrations if the clinical Cmax of the agent was known.
# Compounds. The drugs and investigational agents: ipatasertib (NSC767898), abemaciclib(NSC768073), selumetinib (NSC741078), trametinib (758246), adavosertib (NSC754352), everolimus (NSC733504), sapanisertib (NSC764658), vemurafenib (NSC761431), venetoclax (NSC766270), copanlisib (NSC809693), apelisib (NSC765974), palbociblib (NSC758247), vemurafenib (NSC761431), dabrafenib (NSC764134), ravoxertinib (NSC781343), BMS-387032 (NSC767048), sotorasib (NSC818433), talazoparib (NSC767125) and afursertib (NSC778305), were obtained from the National Cancer Institute (NCI) Developmental Therapeutics Program Chemical Repository. The FDA-approved anticancer drug set is available from the NCI Developmental Therapeutics Program. […] The stock solutions were prepared in dimethyl sulfoxide (DMSO, Sigma-Aldrich, St. Louis, MO, cat. D2650) at 800-fold the tested concentration and stored at -70 degrees C prior to their use. All drugs and investigational agents were tested over a range starting from a high concentration at or near the clinical Cmax and decreasing in half-log increments. If the clinical Cmax for an agent had not been determined, the highest concentration tested was 10 microM.
# NCI60 Cell Culture. NCI60 cell lines were obtained from the NCI Developmental Therapeutics Program Tumor Repository. For each lot of cells, the Repository performed Applied Biosystems AmpFLSTR Identifiler testing with PCR amplification to confirm consistency with the published Identifier STR profile for each cell line. Cells were kept in continuous culture for no more than 20 passages. The optimal seeding densities for each of the cell lines at each time point assessed were determined prior to performing the concentration response studies. Briefly, the NCI60 human tumor lines were grown as monolayers in RPMI 1640 medium supplemented with 10% FBS and 2 mmol/L L-glutamine.
# An additional 9 lines were from the NCI60 cell line panel including MDA-MB-231 breast carcinoma, MDA-MB-468 breast carcinoma, MCF7 breast carcinoma, Hs578T breast carcinoma, MALME-3M melanoma, SK-MEL-2 melanoma, SK-OV-3 ovarian carcinoma, DU-145 prostate carcinoma, PC-3 prostate carcinoma, all cell lines along with major genetic alterations are listed on Table 2. Pooled donor human umbilical vein endothelial cells (HUVEC, Lonza, cat. CC-2519) and human mesenchymal stem cells (hMSC, Lonza, cat. PT-2501) were purchased from Lonza (Walkersville, MD).
# PDMR cell lines were grown in complete medium (DC medium): Dulbecco's modified Eagle's medium (DMEM)/F12 supplemented with 5% fetal bovine serum (FBS), 2 mM L-glutamine, 100 U/mL penicillin and 100 µg/ml streptomycin, 0.4 µg/ml hydrocortisone, 10 ng/ml epidermal growth factor (EGF) recombinant human protein, 24 µg/mL adenine, and 0.1 mg/mL primocin. During culture from frozen stock vials, PDMR cells were cultured in the same medium containing 10 µM Y-27632 (see Table 3). The PDCs were cultured in complete DMEM/F12 media without 10 microM Y-27632 dihydrochloride for at least two passages prior to the screen. The pooled donor HUVEC and hMSC were cultured in endothelial cell growth medium 2 (PromoCell, Heidelberg, Germany, cat. C-22011) and mesenchymal stem cell growth medium 2 (PromoCell, cat. C-28009), respectively. For all experiments, HUVEC and hMSC were used at passages </=5.
# […]
# [1] = second compound 0.1 µM, first compound 0.0316 µM
# [2] = second compound 0.1 µM, first compound 0.1 µM
# [3] = second compound 0.316 µM, first compound 0.0316 µM
# [4] = second compound 0.316 µM, first compound 0.1 µM
# [5] = second compound 1 µM, first compound 0.0316 µM
# [6] = second compound 1 µM, first compound 0.1 µM
# [7] = second compound 3.16 µM, first compound 0.0316 µM
# [8] = second compound 3.16 µM, first compound 0.1 µM
# [9] = second compound 10 µM, first compound 0.0316 µM
# [10] = second compound 10 µM, first compound 0.1 µM
# [11] = second compound 0.1 µM, first compound 0.316 µM
# [12] = second compound 0.1 µM, first compound 1 µM
# [13] = second compound 0.1 µM, first compound 3.16 µM
# [14] = second compound 0.1 µM, first compound 10 µM
# [15] = second compound 0.316 µM, first compound 0.316 µM
# [16] = second compound 0.316 µM, first compound 1 µM
# [17] = second compound 0.316 µM, first compound 3.16 µM
# [18] = second compound 0.316 µM, first compound 10 µM
# [19] = second compound 1 µM, first compound 0.316 µM
# [20] = second compound 1 µM, first compound 1 µM
# [21] = second compound 1 µM, first compound 3.16 µM
# [22] = second compound 1 µM, first compound 10 µM
# [23] = second compound 3.16 µM, first compound 0.316 µM
# [24] = second compound 3.16 µM, first compound 1 µM
# [25] = second compound 3.16 µM, first compound 3.16 µM
# [26] = second compound 3.16 µM, first compound 10 µM
# [27] = second compound 10 µM, first compound 0.316 µM
# [28] = second compound 10 µM, first compound 1 µM
# [29] = second compound 10 µM, first compound 3.16 µM
# [30] = second compound 10 µM, first compound 10 µM
# 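Further: spheroids exposed to the agents for seven days before readout.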
Compound,IC50 (second compound 0.1 µM) [nM],IC50 (second compound 0.316 µM) [nM],IC50 (second compound 1 µM) [nM],IC50 (second compound 3.16 µM) [nM],IC50 (second compound 10 µM) [nM],"viability, T/C [1] [%]","viability, T/C [2] [%]","viability, T/C [3] [%]","viability, T/C [4] [%]","viability, T/C [5] [%]","viability, T/C [6] [%]","viability, T/C [7] [%]","viability, T/C [8] [%]","viability, T/C [9] [%]","viability, T/C [10] [%]","viability, T/C [11] [%]","viability, T/C [12] [%]","viability, T/C [13] [%]","viability, T/C [14] [%]","viability, T/C [15] [%]",other results
CC(C)n1nc(-c2ccc3oc(N)nc3c2)c2c(N)ncnc21 + CC(C)NCC(C(=O)N1CCN(c2ncnc3c2C(C)CC3O)CC1)c1ccc(Cl)cc1,3.65,0.877,< 0.316,< 0.316,< 0.316,2.88,2,1.96,1.7,1.26,1.29,1.09,0.93,0.84,1,,,,,,"viability, T/C (second compound 0.1 µM, first compound 0.000316 µM): 116%; viability, T/C (second compound 0.1 µM, first compound 0.001 µM): 101%; viability, T/C (second compound 0.1 µM, first compound 0.00316 µM): 56.6%; viability, T/C (second compound 0.1 µM, first compound 0.01 µM): 11.2%; viability, T/C (second compound 0.316 µM, first compound 0.000316 µM): 69.3%; viability, T/C (second compound 0.316 µM, first compound 0.001 µM): 47.4%; viability, T/C (second compound 0.316 µM, first compound 0.00316 µM): 16.7%; viability, T/C (second compound 0.316 µM, first compound 0.01 µM): 3.76%; viability, T/C (second compound 1 µM, first compound 0.000316 µM): 20%; viability, T/C (second compound 1 µM, first compound 0.001 µM): 9.02%; viability, T/C (second compound 1 µM, first compound 0.00316 µM): 5.13%; viability, T/C (second compound 1 µM, first compound 0.01 µM): 2.23%; viability, T/C (second compound 3.16 µM, first compound 0.000316 µM): 8.5%; viability, T/C (second compound 3.16 µM, first compound 0.001 µM): 4.98%; viability, T/C (second compound 3.16 µM, first compound 0.00316 µM): 2.85%; viability, T/C (second compound 3.16 µM, first compound 0.01 µM): 1.62%; viability, T/C (second compound 10 µM, first compound 0.000316 µM): 5.26%; viability, T/C (second compound 10 µM, first compound 0.001 µM): 3.35%; viability, T/C (second compound 10 µM, first compound 0.00316 µM): 2.04%; viability, T/C (second compound 10 µM, first compound 0.01 µM): 1.47%"
CC1(C)CCC(CN2CCN(c3ccc(C(=O)NS(=O)(=O)c4ccc(NCC5CCOCC5)c([N+](=O)[O-])c4)c(Oc4cnc5[nH]ccc5c4)c3)CC2)=C(c2ccc(Cl)cc2)C1 + CC(C)NCC(C(=O)N1CCN(c2ncnc3c2C(C)CC3O)CC1)c1ccc(Cl)cc1,5670,2840,< 31.6,< 31.6,< 31.6,136,114,103,96.8,37.2,31.9,10.9,11.4,8.52,5.8,120,107,84.3,18.7,83.1,"viability, T/C [16]: 71.3%; viability, T/C [17]: 48.7%; viability, T/C [18]: 14.8%; viability, T/C [19]: 34.8%; viability, T/C [20]: 32.3%; viability, T/C [21]: 30.3%; viability, T/C [22]: 12.3%; viability, T/C [23]: 11.3%; viability, T/C [24]: 11.5%; viability, T/C [25]: 12.6%; viability, T/C [26]: 5.33%; viability, T/C [27]: 5.75%; viability, T/C [28]: 6.5%; viability, T/C [29]: 5.63%; viability, T/C [30]: 2.85%"
CCCS(=O)(=O)Nc1ccc(F)c(C(=O)c2c[nH]c3ncc(-c4ccc(Cl)cc4)cc23)c1F + CC(C)NCC(C(=O)N1CCN(c2ncnc3c2C(C)CC3O)CC1)c1ccc(Cl)cc1,> 10000,> 10000,< 31.6,< 31.6,< 31.6,112,128,90.3,91.5,36.9,39.9,12.8,13.4,7.7,7.32,110,111,112,90.8,92.5,"viability, T/C [16]: 97.8%; viability, T/C [17]: 110%; viability, T/C [18]: 100%; viability, T/C [19]: 38.9%; viability, T/C [20]: 41.4%; viability, T/C [21]: 47.2%; viability, T/C [22]: 53.7%; viability, T/C [23]: 14.2%; viability, T/C [24]: 14.5%; viability, T/C [25]: 21%; viability, T/C [26]: 24.1%; viability, T/C [27]: 8.04%; viability, T/C [28]: 8.61%; viability, T/C [29]: 10.4%; viability, T/C [30]: 11%"
